According to patent US6673555B1, “Methods of using SCAP antagonists” (SmithKline Beecham Corporation, priority 1999, dated 2004):

How the values were obtained:
HepG2 cells = test: Uptake of Dil-LDL by HepG2 cells; type: cell-based; settings: 0.5 μM, 24 hours, Dil-LDL 6 μg/ml for last 4 hours, FIG. 5
Protocol: To determine if activation of LDL-receptor promoter also translated into an increase in functional LDL receptors, an LDL uptake assay was set up. HepG2 cells seeded at 8 10^4 cells per 8 well Biocoat slides (Beckton Dickinson) were treated with SCAP antagonist or 25OH-cholesterol for 20h and then incubated with 6 μg/ml of fluorescent Dil-LDL for 4 hours. The amount of fluorescent dye that accumulated in the lysosomes was quantified by fluorescence microscopy using Axioplan-2 Zeiss microscope equipped with DXC950P video camera (Sony) and red fluorescence filters.
HepG2 cells were treated for 24 hours in the presence of 0.5 μM Example 1 or 10 μM 25OH-cholesterol. Dil-LDL (6 μg/ml) were added 4 hours before the end of the incubation. Cells were washed and observed by fluorescence microscopy using rhodamine filters and video camera with fixed settings.

[1] = tested on: hamster LDL-receptor mRNA; test: LDL-receptor mRNA by real-time PCR in livers of cholesterol-fed hamsters; type: in vivo, Syrian golden hamster; settings: 5 mg/kg oral once a day for 3 days, versus vehicle, FIG. 6
Protocol: (§1) The in vivo activity of SCAP antagonist was determined in the golden Syrian hamster previously fed with a cholesterol rich diet. Male Syrian golden hamsters (Janvier, France) were kept on a 12 h light-dark cycle. Animals (7 weeks age, 150 g) were fed for 2 weeks with a high cholesterol diet containing 0.2% cholesterol plus 10% coconut oil. Animals (n=5 per group) were then treated orally with vehicle, (0.5% methylcellulose, 5% Tween 80) or Example 1 at 1, 5 or 20 mg/kg in the vehicle, once a day for 3 days.
4 hours after the last administration, animals were sacrificed and livers were immediately dropped into liquid nitrogen. Total RNA was extracted using RNAqous kit (Ambion) according to manufacturer instruction. […] The expression of the hamster LDL-receptor was determined using the following primers: SEQ ID NO: 12 […] and SEQ ID NO: 13 […]. […] Each sample was quantified in duplicates and the cycle threshold (Ct) were calculated. For each animal the difference between Ct values for the LDL-receptor and Ribosomal RNA were calculated. The quantity of LDL-receptor mRNA relative to Ribosomal RNA reference was calculated as 2^−ΔΔCt and expressed in arbitrary units.
Cholesterol-fed hamsters were treated with Example 1 (5 mg/kg) or vehicle for 3 days. LDL-receptor mRNA in the liver was quantified by real-time PCR using Ribosomal 18S RNA as internal reference.

[2] = tested on: golden Syrian hamster previously fed with a cholesterol rich diet; test: Lipoprotein and lipid in sera of cholesterol-fed hamsters (ultracentrifugation, enzymatic assays, SDS-PAGE); type: in vivo; settings: for apoB100: VLDL and LDL fraction; for reduction of LDL-cholesterol / reduction of triglycerides: Table 1
Protocol: as §1
(§2) 4h after the last treatment, animals were anesthetized, blood was collected and serum was prepared by centrifugation. Total cholesterol was determined using a enzymatic assay kit (Biomerieux, France). Lipoproteins were separated by ultracentrifugation using a single KBr concentration (density 1.063). Cholesterol and triglycerides associated with the upper phase (corresponding to VLDL +LDL lipoproteins) and cholesterol associated with the lower phase (corresponding to the HDL fraction) were determined using the enzymatic assays kits. Apolipoprotein B100 associated with VLDL and LDL lipoprotein fraction were analysed by SDS-PAGE and Coomassie blue staining. Lipoproteins were also separated by high-performance gel filtration chromatography with on-line colorimetric determination of cholesterol. Lipoprotein separation was performed on a single superose 6HR column (Pharmacia) with an elution buffer consisting of 10 mM tris, 1 mM EDTA and 150 mM NaCl adjusted at pH 7.4. Cholesterol was measured on line using the RTU enzymatic assay (Biomerieux). The column was calibrated using human lipoproteins and the various peaks in cholesterol profiles are designated VLDL, LDL and HDL for simplicity.
(§3) Cholesterol-fed animals were treated for 3 days with Example 1 at 1 and 20 mg/kg. […] In another experiment, lipoproteins were separated by gel filtration and cholesterol content was quantified on-line. As shown in FIG. 7 Example 1 at […] strongly reduces atherogenic particles: 79% reduction of VLDL cholesterol and 60% reduction of LDL-cholesterol.

[3] = tested on: golden Syrian hamster previously fed with a cholesterol rich diet; test: Lipoprotein cholesterol profile by gel filtration in cholesterol-fed hamsters (FIG. 7); type: in vivo; settings: 5 mg/kg oral once a day for 3 days
Protocol: as §1, §2, §3

[4] = 1 mg/kg oral once a day for 3 days
[5] = 1 mg/kg oral once a day for 3 days, serum 4h after last treatment
[6] = 20 mg/kg oral once a day for 3 days
[7] = 20 mg/kg oral once a day for 3 days, serum 4h after last treatment

With CCOc1cc(CC)ccc1C1CCN(CCCCNC(=O)c2ccc(NC(=O)c3ccc(Cl)cc3)cc2)CC1 [Example 1, 4-(4-Chloro-benzoylamino)-N-{4-[4-(2-ethoxy-4-ethyl-phenyl)-piperidin-1-yl]-butyl}-benzamide] the “LDL uptake (Dil-LDL fluorescence)” value (HepG2 cells) was “markedly increased the LDL uptake”, the “LDL-receptor mRNA in the liver” value [1] was “increased mRNA for LDL-receptor” and the “CHOLESTEROL HDL chol, % of control” value [2, 4] was 123%. For the same compound, the “CHOLESTEROL LCLchol, % of control” value [2, 4] was 50%, the “CHOLESTEROL TOTAL, % of control” value [2, 4] was 79% and the “Triglycerides TOTAL, % of control” value [2, 4] was 37% (p < 0.001). For the same compound, the “apoB100, % of control” value [2, 4] was 62% (p < 0.005), the apoB100 [2, 4] was 3.1 ± 0.4 S.U and the “CHOLESTEROL HDL chol” value [2, 5] was 1.5 ± 0.1 g/L. For the same compound, the “CHOLESTEROL LCLchol” value [2, 5] was 0.95 ± 0.2 g/L, the “CHOLESTEROL TOTAL” value [2, 5] was 3.1 ± 0.3 g/L and the “Triglycerides TOTAL” value [2, 5] was 1.3 ± 0.2 g/L. The “reduction of LDL-cholesterol” value ([2]; 1 mg/kg, 3 days) was 50%, the reduction of triglycerides ([2]; 1 mg/kg, 3 days) was 63% and the “CHOLESTEROL HDL chol, % of control” value [2, 6] was 113% NS. For the same compound, the “CHOLESTEROL LCLchol, % of control” value [2, 6] was 17%, the “CHOLESTEROL TOTAL, % of control” value [2, 6] was 55% and the “Triglycerides TOTAL, % of control” value [2, 6] was 24% (p < 0.001). For the same compound, the “apoB100, % of control” value [2, 6] was 25% (p < 0.005), the apoB100 [2, 6] was 1.2 ± 0.2 S.U and the “CHOLESTEROL LCLchol” value [2, 7] was 0.3 ± 0.1 g/L. For the same compound, the “CHOLESTEROL TOTAL” value [2, 7] was 2.1 ± 0.3 g/L, the “Triglycerides TOTAL” value [2, 7] was 0.8 ± 0.02 g/L and the “reduction of LDL-cholesterol” value ([2]; 20 mg/kg, 3 days) was 83%. The reduction of triglycerides ([2]; 20 mg/kg, 3 days) was 76%, the “effect on Apolipoprotein B100” value ([2]; 1 and 20 mg/kg, 3 days) was “reduced to the same extent” and the “effect on HDL-cholesterol” value ([2]; 1 and 20 mg/kg, 3 days) was “unaffected”. The “increase of cholesterol contained in HDL particles” value [3] was 25%, the “reduction of LDL-cholesterol” value [3] was 60% and the “reduction of VLDL cholesterol” value [3] was 79%. It also gave a melting point of 250 °C.
